In ChEMBL document CHEMBL2331430, “Absolute configuration and conformational analysis of brevipolides, bioactive 5,6-dihydro-α-pyrones from Hyptis brevipes” (J Nat Prod, 2013):
Values after ≈ are worked out from the molar mass of the structure shown.

Columns and labels:
KB = experiment: Cytotoxicity against human KB cells after 72 hrs by SRB assay
HeLa = experiment: Cytotoxicity against human HeLa cells after 72 hrs by SRB assay; settings: read-out: ED50 (the source's name)
MCF7 = experiment: Cytotoxicity against human MCF7 cells after 72 hrs by SRB assay; settings: MCF7, 72 h, read-out: ED50 (the source's name)
[1] = test system: Hep-2 (human laryngeal carcinoma); experiment: Cytotoxicity against human Hep-2 cells after 72 hrs by SRB assay; settings: Hep-2, 72 h, read-out: ED50 (the source's name)
PC-3 = experiment: Cytotoxicity against human PC3 cells after 72 hrs by SRB assay; settings: PC-3, 72 h, read-out: ED50 (the source's name)
HCT-15 = experiment: Cytotoxicity against human HCT15 cells after 72 hrs by SRB assay; settings: HCT-15, 72 h, read-out: ED50 (the source's name)

| Structure (SMILES) | IC50 (KB) [µg/mL] | EC50 (HeLa) [µg/mL] | EC50 (MCF7) [µg/mL] | EC50 [1] [µg/mL] | EC50 (PC-3) [µg/mL] | EC50 (HCT-15) [µg/mL] |
| --- | --- | --- | --- | --- | --- | --- |
| COc1ccc(/C=C/C(=O)O[C@@H](C)C(=O)[C@H]2C[C@@H]2[C@H](O)[C@H]2CC=CC(=O)O2)cc1O [BREVIPOLIDE J] | 1.2 (≈ 2.88 µM) | 0.3 (≈ 0.72 µM) | 0.3 (≈ 0.72 µM) | 0.3 (≈ 0.72 µM) | 0.3 (≈ 0.72 µM) | 0.3 (≈ 0.72 µM) |
| COc1ccc(/C=C/C(=O)O[C@@H](C)C(=O)[C@H]2C[C@@H]2[C@H](O)[C@H]2CC=CC(=O)O2)cc1 [BREVIPOLIDE H] | 2 (≈ 4.99 µM) | 0.3 (≈ 0.749 µM) | 0.3 (≈ 0.749 µM) | 0.3 (≈ 0.749 µM) | 0.3 (≈ 0.749 µM) | 0.3 (≈ 0.749 µM) |
| C[C@H](OC(=O)/C=C/c1ccc(O)cc1)C(=O)[C@H]1C[C@@H]1[C@H](O)[C@H]1CC=CC(=O)O1 [BREVIPOLIDE G] | 0.3 (≈ 0.776 µM) | 0.3 (≈ 0.776 µM) | 0.3 (≈ 0.776 µM) | 0.3 (≈ 0.776 µM) | 0.3 (≈ 0.776 µM) | 0.3 (≈ 0.776 µM) |
| COc1ccc(/C=C\C(=O)O[C@@H](C)C(=O)[C@H]2C[C@@H]2[C@H](O)[C@H]2CC=CC(=O)O2)cc1 [BREVIPOLIDE I] | 1.9 (≈ 4.74 µM) | 0.3 (≈ 0.749 µM) | 0.3 (≈ 0.749 µM) | 0.3 (≈ 0.749 µM) | 0.3 (≈ 0.749 µM) | 0.3 (≈ 0.749 µM) |
